In patent US12528790B2, “Amide derivative having antiviral activity” (Shionogi & Co., Ltd., priority 2020, dated 2026):
pEC50: −log10 of the molar value.

System: RSV A2 strain
Experiment: In vitro CPE (CytoPathic Effect) inhibition effect evaluation test, RSV type A
Format: cell-based
Details: human respiratory syncytial virus, HEp-2
Method: The test sample is diluted in advance to an appropriate concentration with DMSO, and 3-fold series of serial dilutions were prepared on a 384-well plate (0.32 μL/well). HEp-2 cells (CCL-23; ATCC) adjusted at appropriate number (2.4×10^5 cells/mL) in 2% FBS E-MEM (prepared by adding kanamycin and FBS to Eagle's Minimum Essential Medium; Invitrogen) were added at 12.5 μL/well to the 384-well plate previously aliquoted with the test samples. The RSV A2 strain was diluted to an appropriate concentration in a culture medium and added to the 384-well plate containing the test sample at 12.5 μL/well. The culture medium was added additionally to the 384-well plate, and the test was started with 50 μL/well. Control wells were prepared with only virus-free culture medium. The plate was incubated in a 5% CO2 incubator at 37° C. for 4 days, and the plate was then placed at room temperature for 30 minutes. CellTiter-Glo (registered trademark) 2.0 assay (Promega) was added at 15 μL/well, mixed for 30 seconds, and the plate was placed for approximately 1 hour. The luminescent signal was then measured by EnVision (PerkinElmer). The inhibitory effect of the test agents on RSV-induced CPE was calculated as 0% and 100% inhibition rate for each sample concentration based on the level of remaining viable cells by CellTiter-Glo (registered trademark) 2.0, with the EC50 value for each compound calculated by nonlinear regression as the concentration that inhibits RSV-induced CPE by 50%. In the case of evaluation against RSV type B, RSV B (Wash/18537 strain) was infected in the same manner as the type A, cultured for 5 days, and quantitated in the same manner as for the A2 strain.

Row | SMILES | pEC50
1 | O=C(NC1(C(=O)O)CCCCC1)c1cnc(N2CC3(CCNCC3)c3cc(OCCC4CCOCC4)ccc32)nc1C(F)(F)F [Compound I-89] | 5.30 to 7.00
2 | O=C(NC1(c2nn[nH]n2)CCCCC1)c1cnc(N2CC3(CCOCC3)c3cc(OC4CCN(c5ncccn5)CC4)ccc32)nc1C(F)(F)F [Compound I-98] | > 8.00
3 | O=C(NC1(c2noc(=O)[nH]2)CCCCC1)c1cnc(N2CC3(CCOCC3)c3cc(OC4CCN(c5ncccn5)CC4)ccc32)nc1C(F)(F)F [Compound I-99] | > 8.00
4 | Cc1ccc2c(c1)C1(CCN(CC(F)(F)F)CC1)CN2c1ncc(C(=O)NC2(C(=O)O)C3CC4CC(C3)CC2C4)c(C(F)(F)F)n1 (centres unmarked) [Compound I-136] | > 8.00

Same assay, conditions: human respiratory syncytial virus; inhibitory effect against RSV type A (RSV A2 strain), HEp-2 cells, CPE inhibition; read-out: EC50

Row | SMILES | pEC50
5 | CC(=O)N1CCC(Oc2ccc3c(c2)CCN3c2ncc(C(=O)NC3(C(=O)O)CCCCC3)c(C(F)(F)F)n2)CC1 [Compound I-64] | 5.30 to 7.00
6 | CC(C)C(=O)N1CCC(Oc2ccc3c(c2)CCN3c2ncc(C(=O)NC3(C(=O)O)CCCCC3)c(C(F)(F)F)n2)CC1 [Compound I-65] | 7.00 to 8.00
7 | O=C(NC1(C(=O)O)CCCCC1)c1cnc(N2CCc3cc(NC4CCN(c5ncccn5)CC4)ccc32)nc1C(F)(F)F [Compound I-67] | 7.00 to 8.00
8 | O=C(NC1(C(=O)O)CCCCC1)c1cnc(N2CCc3cc(OC4CCN(c5nccc(=O)[nH]5)CC4)ccc32)nc1C(F)(F)F [Compound I-69] | 5.30 to 7.00
9 | O=C(NC1(C(=O)O)CCCCC1)c1cnc(N2CCc3cc(C4=CCCN(Cc5ccccc5)C4)ccc32)nc1C(F)(F)F [Compound I-70] | 7.00 to 8.00
10 | O=C(NC1(C(=O)O)CCCCC1)c1cnc(N2CCc3cc(C4=CCCN(c5ncccn5)C4)ccc32)nc1C(F)(F)F [Compound I-71] | > 8.00
11 | O=C(NC1(C(=O)O)CCCCC1)c1cnc(N2CCc3cc(O[C@@H]4CCN(c5ncccn5)C4)ccc32)nc1C(F)(F)F [Compound I-74] | > 8.00
12 | Cc1cnn(CCOc2ccc3c(c2)CCN3c2ncc(C(=O)NC3(C(=O)O)CCCCC3)c(C(F)(F)F)n2)c1 [Compound I-75] | 7.00 to 8.00
13 | COc1ccc2c(c1)C1(CCOCC1)CN2c1ncc(C(=O)NC2(C(=O)O)CCCCC2)c(C(F)(F)F)n1 [Compound I-76] | 7.00 to 8.00
14 | COc1cccnc1N1CCC(Oc2ccc3c(c2)CCN3c2ncc(C(=O)NC3(C(=O)O)CCCCC3)c(C(F)(F)F)n2)CC1 [Compound I-77] | > 8.00
15 | COc1ccc(N2CCC(Oc3ccc4c(c3)CCN4c3ncc(C(=O)NC4(C(=O)O)CCCCC4)c(C(F)(F)F)n3)CC2)nc1 [Compound I-78] | > 8.00
16 | COc1ccnc(N2CCC(Oc3ccc4c(c3)CCN4c3ncc(C(=O)NC4(C(=O)O)CCCCC4)c(C(F)(F)F)n3)CC2)c1 [Compound I-79] | 7.00 to 8.00
17 | O=C(NC1(C(=O)O)CCCCC1)c1cnc(N2CCc3cc(OC4CCN(c5ccncc5)CC4)ccc32)nc1C(F)(F)F [Compound I-84] | 7.00 to 8.00
18 | O=C(NC1(C(=O)O)CCCCC1)c1cnc(N2CC3(CCOCC3)c3cc(OCCN4CCOCC4)ccc32)nc1C(F)(F)F [Compound I-85] | 7.00 to 8.00
19 | COc1ccc2c(n1)C1(CCOCC1)CN2c1ncc(C(=O)NC2(C(=O)O)CCCCC2)c(C(F)(F)F)n1 [Compound I-90] | 5.30 to 7.00
20 | N#CC1(NC(=O)c2cnc(N3CC4(CCOCC4)c4cc(OC5CCN(c6ncccn6)CC5)ccc43)nc2C(F)(F)F)CCCCC1 [Compound I-94] | > 8.00
21 | COc1cccc(COc2ccc3c(n2)C2(CCOCC2)CN3c2ncc(C(=O)NC3(C(=O)O)CCCCC3)c(C(F)(F)F)n2)c1 [Compound I-103] | > 8.00
22 | O=C(NC1(C(=O)O)CCCCC1)c1cnc(N2CC3(CCOCC3)c3nc(OCCC4CCOCC4)ccc32)nc1C(F)(F)F [Compound I-106] | > 8.00
23 | O=C(NC1(C(=O)O)CCCCC1)c1cnc(N2CC3(CCOCC3)c3nc(OC4CCN(c5ncccn5)CC4)ccc32)nc1C(F)(F)F [Compound I-108] | > 8.00
24 | CCNC(=O)N1CCC(Oc2ccc3c(c2)CCN3c2ncc(C(=O)NC3(C(=O)O)CCCCC3)c(C(F)(F)F)n2)CC1 [Compound I-112] | 7.00 to 8.00

Row | SMILES | pEC50
25 | O=C(NC1(C(=O)O)C2CC3CC(C2)CC1C3)c1cnc(N2CC3(CCOCC3)c3cc(CCCC4CCOCC4)ccc32)nc1C(F)(F)F (centres unmarked) [Compound I-114] | > 8.00
26 | O=C(NC1(C(=O)O)C2CC3CC(C2)CC1C3)c1cnc(N2CC3(CCOCC3)c3cc(C4CC4)ccc32)nc1C(F)(F)F (centres unmarked) [Compound I-115] | > 8.00
27 | Cn1cc(-c2ncc(C(=O)NC3(C(=O)O)C4CC5CC(C4)CC3C5)c(C(F)(F)F)n2)c2ccc(OCCC3CCOCC3)cc21 (centres unmarked) [Compound I-116] | > 8.00
28 | Cn1cc(-c2ncc(C(=O)NC3(C(=O)O)CCCCC3)c(C(F)(F)F)n2)c2ccc(OCCC3CCOCC3)cc21 [Compound I-117] | 7.00 to 8.00
29 | O=C(NC1(C(=O)O)C2CC3CC(C2)CC1C3)c1cnc(N2CC3(CCOCC3)c3cc(CC4CCN(c5ncccn5)CC4)ccc32)nc1C(F)(F)F (centres unmarked) [Compound I-119] | > 8.00
30 | COc1ccc2c(n1)C1(CCOCC1)CN2c1ccc(C(=O)NC2(C(=O)O)C3CC4CC(C3)CC2C4)c(C(F)(F)F)n1 (centres unmarked) [Compound I-120] | > 8.00
31 | COc1ccc2c(c1)C1(CCOCC1)CN2c1ccc(C(=O)NC2(C(=O)O)C3CC4CC(C3)CC2C4)c(C(F)(F)F)n1 (centres unmarked) [Compound I-121] | > 8.00
32 | Cc1ccc2c(c1)C1(CCOCC1)CN2c1ccc(C(=O)NC2(C(=O)O)C3CC4CC(C3)CC2C4)c(C(F)(F)F)n1 (centres unmarked) [Compound I-122] | > 8.00
33 | O=C(NC1(C(=O)O)C2CC3CC(C2)CC1C3)c1ccc(N2CCc3cc(OCCC4CCOCC4)ccc32)cc1C(F)(F)F (centres unmarked) [Compound I-123] | > 8.00
34 | COc1ccc2c(c1)CCN2c1ccc(C(=O)NC2(C(=O)O)C3CC4CC(C3)CC2C4)c(C(F)(F)F)c1 (centres unmarked) [Compound I-124] | 7.00 to 8.00
35 | O=C(NC1(C(=O)O)C2CC3CC(C2)CC1C3)c1ccc(N2CCc3cc(OCCC4CCOCC4)cnc32)cc1C(F)(F)F (centres unmarked) [Compound I-125] | 7.00 to 8.00
36 | O=C(NC1(C(=O)O)C2CC3CC(C2)CC1C3)c1cnc(N2CCc3cc(OCCC4CCOCC4)cnc32)cc1C(F)(F)F (centres unmarked) [Compound I-126] | > 8.00
37 | Cn1nc(-c2ccc(C(=O)NC3(C(=O)O)C4CC5CC(C4)CC3C5)c(C(F)(F)F)n2)c2ccc(OCCC3CCOCC3)cc21 (centres unmarked) [Compound I-127] | > 8.00
38 | O=C(NC1(C(=O)O)C2CC3CC(C2)CC1C3)c1cnc(N2CC3(CCOCC3)c3cc(C4=CCCC4)ccc32)nc1C(F)(F)F (centres unmarked) [Compound I-128] | > 8.00
39 | O=C(NC1(C(=O)O)C2CC3CC(C2)CC1C3)c1cnc(N2CC3(CCOCC3)c3cc(C4CCCC4)ccc32)nc1C(F)(F)F (centres unmarked) [Compound I-129] | > 8.00
40 | COCCn1cc(-c2ncc(C(=O)NC3(C(=O)O)C4CC5CC(C4)CC3C5)c(C(F)(F)F)n2)c2ccc(OCCC3CCOCC3)cc21 (centres unmarked) [Compound I-130] | > 8.00
41 | O=C(NC1(C(=O)O)C2CC3CC(C2)CC1C3)c1cnc(-c2cn(C3CCOCC3)c3cc(OCCC4CCOCC4)ccc23)nc1C(F)(F)F (centres unmarked) [Compound I-131] | > 8.00
42 | Cc1ccc2c(c1)C1(CCN(C(=O)OCc3ccccc3)CC1)CN2c1ncc(C(=O)NC2(C(=O)O)C3CC4CC(C3)CC2C4)c(C(F)(F)F)n1 (centres unmarked) [Compound I-132] | 7.00 to 8.00
43 | CCc1ccc2c(c1)C1(CCOCC1)CN2c1ncc(C(=O)NC2(C(=O)O)C3CC4CC(C3)CC2C4)c(C(F)(F)F)n1 (centres unmarked) [Compound I-133] | > 8.00
44 | Cc1ccc2c(c1)C1(CCNCC1)CN2c1ncc(C(=O)NC2(C(=O)O)C3CC4CC(C3)CC2C4)c(C(F)(F)F)n1 (centres unmarked) [Compound I-134] | > 8.00

Same assay, conditions: inhibitory effect against RSV type A (RSV A2 strain), HEp-2 cells, CPE inhibition; read-out: EC50

Row | SMILES | pEC50
45 | COc1ccc2c(c1)CCN2c1ncc(C(=O)NC2(C(=O)O)C3CC4CC(C3)CC2C4)c(C(F)(F)F)n1 (centres unmarked) [Compound I-68] | 7.00 to 8.00
46 | CNc1nc(N2CCc3cc(OCCC4CCOCC4)ccc32)nc(C(F)(F)F)c1C(=O)NC1(C(=O)O)C2CC3CC(C2)CC1C3 (centres unmarked) [Compound I-95] | > 8.00
47 | O=C(NC1(C(=O)O)C2CC3CC(C2)CC1C3)c1ccc(N2CC3(CCOCC3)c3cc(OCCC4CCOCC4)ccc32)nc1C(F)(F)F (centres unmarked) [Compound I-101] | > 8.00
48 | O=C(NC1(C(=O)O)C2CC3CC(C2)CC1C3)c1ccc(N2CC3(CCOCC3)c3cc(OC4CCN(c5ncccn5)CC4)ccc32)nc1C(F)(F)F (centres unmarked) [Compound I-102] | > 8.00
49 | COc1cccc(COc2ccc3c(n2)C2(CCOCC2)CN3c2ncc(C(=O)NC3(C(=O)O)C4CC5CC(C4)CC3C5)c(C(F)(F)F)n2)c1 (centres unmarked) [Compound I-104] | > 8.00
50 | O=C(NC1(C(=O)O)C2CC3CC(C2)CC1C3)c1cnc(N2CC3(CCOCC3)c3nc(OCCC4CCOCC4)ccc32)nc1C(F)(F)F (centres unmarked) [Compound I-105] | > 8.00
51 | O=C(NC1(C(=O)O)C2CC3CC(C2)CC1C3)c1cnc(N2CC3(CCOCC3)c3nc(OC4CCN(c5ncccn5)CC4)ccc32)nc1C(F)(F)F (centres unmarked) [Compound I-107] | > 8.00
52 | O=C(NC1(C(=O)O)C2CC3CC(C2)CC1C3)c1cnc(N2CC3(CCOCC3)c3cc(/C=C/CC4CCOCC4)ccc32)nc1C(F)(F)F (centres unmarked) [Compound I-110] | > 8.00
53 | O=C(NC1(C(=O)O)C2CC3CC(C2)CC1C3)c1cnc(N2CC3(CCOCC3)c3cc(C=C4CCN(C(=O)OCc5ccccc5)CC4)ccc32)nc1C(F)(F)F (centres unmarked) [Compound I-111] | > 8.00
